What was measured:
recombinant CBS = target: T1, recombinant CBS (Rattus norvegicus, UniProt P32232); test: Inhibitory activity towards purified CBS by gas chromatography; type: biochemical; conditions: 100 μM compound, 10 mM L-cysteine and DL-homocysteine
T1 construct: GST (N, cleaved yes); made in house; host or cells: E. coli DH5α
T1 sequence (P32232 1-561): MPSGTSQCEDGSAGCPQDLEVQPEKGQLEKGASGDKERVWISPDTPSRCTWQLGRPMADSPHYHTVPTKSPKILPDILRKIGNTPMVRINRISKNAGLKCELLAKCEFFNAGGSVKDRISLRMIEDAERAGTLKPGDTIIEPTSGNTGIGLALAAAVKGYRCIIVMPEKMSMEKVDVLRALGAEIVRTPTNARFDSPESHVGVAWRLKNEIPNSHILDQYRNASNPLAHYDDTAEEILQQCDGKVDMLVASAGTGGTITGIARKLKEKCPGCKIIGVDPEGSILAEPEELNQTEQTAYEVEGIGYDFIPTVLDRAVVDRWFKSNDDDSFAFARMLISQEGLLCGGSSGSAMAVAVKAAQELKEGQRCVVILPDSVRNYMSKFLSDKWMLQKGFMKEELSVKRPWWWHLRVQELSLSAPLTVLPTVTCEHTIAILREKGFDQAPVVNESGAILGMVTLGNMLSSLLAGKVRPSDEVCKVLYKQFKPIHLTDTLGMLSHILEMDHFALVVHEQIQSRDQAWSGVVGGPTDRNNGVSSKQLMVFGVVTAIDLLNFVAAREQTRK
Protocol: (§1) Figure 2 Selectivity assessment of hit compounds for 3MST over other H2S/polysulfides-producing enzymes and rhodanese. (a) 3MST-Inhibitory activity of hit compounds at 10 and 100 μM in cell lysate of 3MST-expressing HEK293 cells. 100 μM 3MP and 100 μM DTT were added to the solution containing 0.1% DMSO as a cosolvent, and the mixture was incubated at 37 °C for 15 min. H2S production was measured by gas chromatography. All data are presented as the mean ± S.D. (100 μM: n = 3 or 4; 10 μM: n = 3). (b) Selectivity assessment of hit compounds at 100 μM towards CBS and CSE. Only DMSO was added to the control sample instead of DMSO solution containing hit compounds. H2S production was monitored by gas chromatography. All data are presented as the mean (n = 3). (c) Detection method for rhodanese activity (Sörbo method). (d) Selectivity assessment of hit compounds towards rhodanese. The results are mean ± S.D. (n = 4, three times). These values were determined based upon the absorbance of [Fe(SCN)3] at 460 nm (Sӧrbo method). Bovine rhodanese 1.3–1.7 units/mL, substrate: 52 mM Na2S2O3, 50 mM KCN, 0.004% (w/v) BSA, 100 μM compound and DMSO 1% (v/v) in 88 mM potassium phosphate buffer (pH 8.6) at room temperature for 5 min incubation. (e) Fluorescence confocal microscopic images of live COS7 cells transfected with 3MST or an empty vector[9] as a control. Cells were incubated with 50 μM SSP4, a fluorescent probe for sulfane sulfur, and 10 μM, 1 μM, 0.5 μM, 0.1 or 0 μM compound 3 in DMEM containing 0.6% DMSO for 30 min, then washed with HBSS and placed in fresh DMEM with 0‒10 μM compound 3 (Pre). 500 μM 3MP was added to the cells and the cells were incubated for 10 min (10 min). (f) Graphic representation of (e). F/F0 was calculated by dividing the fluorescence intensity of cells after addition of 500 μM 3MP (10 min) by that of cells before addition of 500 μM 3MP (Pre), then the mean F/F0 was determined from 5 cells. All data represent the mean ± standard error of the mean (SEM) of three experiments.
GST-tagged rat CSE-HA or rat CBS-HA was expressed in E. coli DH5α as follows. E. coli DH5α transformed with the pGEX-rCSE-HA or pGEX-rCBS-HA plasmid was cultured overnight in LB medium containing 100 μg/mL ampicillin (and 0.3 mM 5-aminolevulinic acid, for CBS) at 37 °C, and the 120 mL culture was inoculated into 2400 mL of LB medium. Further growth of the culture was performed at 37 °C with vigorous shaking until OD600 reached 0.8. IPTG was added to the E. coli DH5α culture at a final concentration of 0.1 mM and incubation was continued at 18 °C. […]

recombinant CSE = target: T2, recombinant CSE (Rattus norvegicus, UniProt P18757); test: Inhibitory activity towards purified CSE by gas chromatography; type: biochemical; conditions: 100 μM compound, 10 mM L-cysteine
T2 construct: GST (N, cleaved yes); made in house; host or cells: E. coli DH5α
Protocol: as §1
GST-tagged rat CSE-HA or rat CBS-HA was expressed in E. coli DH5α as follows. […]

inhibition at 100 µM (recombinant CBS; read-out: Inhibition of recombinant CBS enzymatic activity (H2S production)) | inhibition at 100 µM (recombinant CSE; read-out: Inhibition of recombinant CSE enzymatic activity (H2S production)) | Inhibition of recombinant CBS enzymatic activity (H2S production) (recombinant CBS) | Inhibition of recombinant CSE enzymatic activity (H2S production) (recombinant CSE) | SMILES
~25% | ~25% |  |  | NC(=O)c1ccsc1NC(=O)CSc1nc2ccccc2c(=O)[nH]1 [compound 1]
 |  | almost inactive | almost inactive | Cc1cc(=O)[nH]c(SCC(=O)c2cccc3ccccc23)n1 [compound 3]
 |  | enhancement of H2S production |  | O=C(O)c1cccc(NS(=O)(=O)c2ccccc2)c1 [compound 5]
 |  | enhanced H2S production | enhanced H2S production | Cc1sc2nc(SCC(=O)c3ccc(O)cc3O)[nH]c(=O)c2c1C [compound 2]
